target: PD-1/PD-L1 (Homo sapiens (Human), UniProt Q9NZQ7); test: PD-1/PD-L1 Homogeneous Time-Resolved Fluorescence (HTRF) Binding Assay; details: recombinant human PD-1 (3 nM) and PD-L1 (10 nM), 25° C., PBS pH 7.4
How it was run: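 Fc-tagged human PD-1 (25-167, 3 nM) and His-tagged PD-L1 (19-238, 10 nM) preincubated with inhibitor 40 min in PBS pH 7.4, 0.05% Tween-20, 0.1% BSA, 1% DMSO, 25 °C. Binding detected by HTRF (Eu anti-IgG/APC anti-His, 665/620 nm) after 60 min; IC50 from percent control activity.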

Chain of PD-1/PD-L1 (Q9NZQ7 19-238): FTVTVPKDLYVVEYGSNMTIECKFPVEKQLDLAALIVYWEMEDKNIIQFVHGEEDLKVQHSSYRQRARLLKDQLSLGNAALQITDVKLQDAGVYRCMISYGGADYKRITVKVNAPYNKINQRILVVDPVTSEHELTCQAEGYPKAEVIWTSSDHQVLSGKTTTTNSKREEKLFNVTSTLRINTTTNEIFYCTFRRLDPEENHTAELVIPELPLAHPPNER

| SMILES | IC50 [nM] |
| --- | --- |
| Cc1c(-c2nc3cc(CN4CC[C@@H](C(=O)O)C4)cc(Cl)c3o2)cccc1-c1cccc(-c2nc3c(s2)CN(C)CC3)c1C [Example 71, (R)-1-((7-chloro-2-(2,2′-dimethyl-3′-(5-methyl-4,5,6,7-tetrahydrothiazolo[5,4-c]pyridin-2-yl)-[1,1′-biphenyl]-3-yl)benzo[d]oxazol-5-yl)methyl)pyrrolidine-3-carboxylic acid] | ≤ 10 |
| Cc1c(Nc2nccc3cc(CN4CC[C@@H](O)C4)cnc23)cccc1-c1cccc(-c2nc3cc(CN4CC[C@@H](C(=O)O)C4)cc(C#N)c3o2)c1C [Example 24, (R)-1-((7-cyano-2-(3′-(3-(((R)-3-hydroxypyrrolidin-1-yl)methyl)-1,7-naphthyridin-8-ylamino)-2,2′-dimethylbiphenyl-3-yl)benzo[d]oxazol-5-yl)methyl)pyrrolidine-3-carboxylic acid] | ≤ 10 |
| Cc1c(-c2nc3cc(CN4CC[C@H](C(=O)O)C4)cc(C#N)c3o2)cccc1-c1cccc(NC(=O)c2nc3c(n2C)CCN(C)C3)c1Cl [Example 50, (S)-1-((2-(2′-chloro-3′-(1,5-dimethyl-4,5,6,7-tetrahydro-1H-imidazo[4,5-c]pyridine-2-carboxamido)-2-methylbiphenyl-3-yl)-7-cyanobenzo[d]oxazol-5-yl)methyl)pyrrolidine-3-carboxylic acid] | ≤ 10 |
| Cc1c(-c2nc3cc(CN[C@H]4CC[C@H](C(=O)O)CC4)cc(C#N)c3o2)cccc1-c1cccc(NC(=O)c2nc3c(n2C)CCN(C)C3)c1Cl [Example 91, (1R,4R)-4-((2-(2′-chloro-3′-(1,5-dimethyl-4,5,6,7-tetrahydro-1H-imidazo[4,5-c]pyridine-2-carboxamido)-2-methylbiphenyl-3-yl)-7-cyanobenzo[d]oxazol-5-yl)methylamino)cyclohexanecarboxylic acid] | ≤ 10 |
| Cc1c(-c2nc3cc(CN4CC[C@H](C(=O)O)C4)cc(C#N)c3o2)cccc1-c1cccc(NC(=O)c2nc3c(n2C)CCN(C)C3)c1F [Example 51, (S)-1-((7-cyano-2-(3′-(1,5-dimethyl-4,5,6,7-tetrahydro-1H-imidazo[4,5-c]pyridine-2-carboxamido)-2′-fluoro-2-methylbiphenyl-3-yl)benzo[d]oxazol-5-yl)methyl)pyrrolidine-3-carboxylic acid] | ≤ 10 |
| Cc1c(-c2nc3cc(CN4CCCC[C@H]4C(=O)O)cc(C#N)c3o2)cccc1-c1cccc(NC(=O)c2nc3c(n2C)CCN(C)C3)c1Cl [Example 52, (S)-1-((2-(2′-chloro-3′-(1,5-dimethyl-4,5,6,7-tetrahydro-1H-imidazo[4,5-c]pyridine-2-carboxamido)-2-methylbiphenyl-3-yl)-7-cyanobenzo[d]oxazol-5-yl)methyl)piperidine-2-carboxylic acid] | ≤ 10 |
| Cc1c(NC(=O)c2nc3c(n2C)CCN(C2CC2)C3)cccc1-c1cccc(-c2nc3cc(CN4CC[C@H](C(=O)O)C4)cc(C#N)c3o2)c1C [Example 39, (S)-1-((7-cyano-2-(3′-(5-cyclopropyl-1-methyl-4,5,6,7-tetrahydro-1H-imidazo[4,5-c]pyridine-2-carboxamido)-2,2′-dimethylbiphenyl-3-yl)benzo[d]oxazol-5-yl)methyl)pyrrolidine-3-carboxylic acid] | ≤ 10 |
| Cc1c(NC(=O)c2nc3c(n2C)CCN(C)C3)cccc1-c1cccc(-c2nc3cc(CN4CC[C@H](C(=O)O)C4)cc(C#N)c3o2)c1C [Example 36, (S)-1-((7-cyano-2-(3′-(1,5-dimethyl-4,5,6,7-tetrahydro-1H-imidazo[4,5-c]pyridine-2-carboxamido)-2,2′-dimethylbiphenyl-3-yl)benzo[d]oxazol-5-yl)methyl)pyrrolidine-3-carboxylic acid] | ≤ 10 |
| Cc1c(-c2nc3cc(CNCCO)cc(Cl)c3o2)cccc1-c1cccc(NC(=O)c2nc3c(s2)CN(C)CC3)c1Cl [Example 9, N-(2-chloro-3′-(7-chloro-5-(((2-hydroxyethyl)amino)methyl)benzo[d]oxazol-2-yl)-2′-methyl-[1,1′-biphenyl]-3-yl)-5-methyl-4,5,6,7-tetrahydrothiazolo[5,4-c]pyridine-2-carboxamide] | ≤ 10 |
| CCN1CCc2nc(-c3cccc(-c4cccc(-c5nc6cc(CN7CC[C@@H](C(=O)O)C7)cc(Cl)c6o5)c4C)c3C)sc2C1 [Example 60, (R)-1-((7-chloro-2-(3′-(5-ethyl-4,5,6,7-tetrahydrothiazolo[5,4-c]pyridin-2-yl)-2,2′-dimethyl-[1,1′-biphenyl]-3-yl)benzo[d]oxazol-5-yl)methyl)pyrrolidine-3-carboxylic acid] | ≤ 10 |
| Cc1c(-c2nc3cc(CN4CC[C@@H](C(=O)O)C4)cc(C#N)c3o2)cccc1-c1cccc(Nc2nccc3cc(CN4CC[C@@H](O)C4)cnc23)c1Cl [Example 84, (R)-1-((2-(2′-chloro-3′-(3-(((R)-3-hydroxypyrrolidin-1-yl)methyl)-1,7-naphthyridin-8-ylamino)-2-methylbiphenyl-3-yl)-7-cyanobenzo[d]oxazol-5-yl)methyl)pyrrolidine-3-carboxylic acid] | ≤ 10 |
| Cc1c(-c2nc3cc(CN4CC[C@@H](C(=O)O)C4)cc(Cl)c3o2)cccc1-c1cccc(Nc2nccc3cc(CN4CC[C@@H](O)C4)cnc23)c1Cl [Example 82, (R)-1-((7-chloro-2-(2′-chloro-3′-(3-(((R)-3-hydroxypyrrolidin-1-yl)methyl)-1,7-naphthyridin-8-ylamino)-2-methylbiphenyl-3-yl)benzo[d]oxazol-5-yl)methyl)pyrrolidine-3-carboxylic acid] | ≤ 10 |
| CNC(=O)[C@@H]1CCN(Cc2cc(C#N)c3oc(-c4cccc(-c5cccc(-n6cc7c(n6)CN(C(C)C)CC7)c5Cl)c4C)nc3c2)C1 [Example 103, (R)-1-((2-(2′-chloro-3′-(6-isopropyl-4,5,6,7-tetrahydro-2H-pyrazolo[3,4-c]pyridin-2-yl)-2-methylbiphenyl-3-yl)-7-cyanobenzo[d]oxazol-5-yl)methyl)-N-methylpyrrolidine-3-carboxamide] | ≤ 10 |

Other lines, results leading:

| IC50 [nM] | SMILES |
| --- | --- |
| ≤ 10 | CC(=O)NCCNCc1cc(C#N)c2oc(-c3cccc(-c4cccc(-c5nc6c(s5)CN(C(C)C)CC6)c4C)c3C)nc2c1 [Example 118, N-(2-(((7-cyano-2-(3′-(5-isopropyl-4,5,6,7-tetrahydrothiazolo[5,4-c]pyridin-2-yl)-2,2′-dimethyl-[1,1′-biphenyl]-3-yl)benzo[d]oxazol-5-yl)methyl)amino)ethyl)acetamide] |
| ≤ 10 | Cc1c(-c2nc3cc(CN4CC[C@@](C)(C(=O)O)C4)cc(C#N)c3o2)cccc1-c1cccc(-c2nc3c(s2)CN(C(=O)CN(C)CC2CC2)C3)c1C [Example 219, (R)-1-((7-cyano-2-(3′-(5-(2-((cyclopropylmethyl) (methyl)amino)acetyl)-5,6-dihydro-4H-pyrrolo[3,4-d]thiazol-2-yl)-2,2′-dimethylbiphenyl-3-yl)benzo[d]oxazol-5-yl)methyl)-3-methylpyrrolidine-3-carboxylic acid] |
| ≤ 10 | Cc1c(-c2nc3cc(CN4CC[C@@H](C(=O)NCCO)C4)cc(C#N)c3o2)cccc1-c1cccc(-c2nc3c(s2)CN(C(C)C)CC3)c1C [Example 119, (R)-1-((7-cyano-2-(3′-(5-isopropyl-4,5,6,7-tetrahydrothiazolo[5,4-c]pyridin-2-yl)-2,2′-dimethyl-[1,1′-biphenyl]-3-yl)benzo[d]oxazol-5-yl)methyl)-N-(2-hydroxyethyl)pyrrolidine-3-carboxamide] |
| ≤ 10 | Cc1c(-c2nc3cc(CN4CC[C@@](C)(C(=O)O)C4)cc(C#N)c3o2)cccc1-c1cccc(-c2nc3c(s2)CN(C(=O)CN(C)C(C)C)C3)c1C [Example 217, (R)-1-((7-cyano-2-(3′-(5-(2-(isopropyl(methyl)amino)acetyl)-5,6-dihydro-4H-pyrrolo[3,4-d]thiazol-2-yl)-2,2′-dimethylbiphenyl-3-yl)benzo[d]oxazol-5-yl)methyl)-3-methylpyrrolidine-3-carboxylic acid] |
| ≤ 10 | Cc1c(Nc2nccc3cc(CN[C@@H](C)CO)cnc23)cccc1-c1cccc(-c2nc3cc(CN4CCC(C(=O)O)CC4)cc(C#N)c3o2)c1C [Example 201, (S)-1-((7-cyano-2-(3′-(3-((1-hydroxypropan-2-ylamino)methyl)-1,7-naphthyridin-8-ylamino)-2,2′-dimethylbiphenyl-3-yl)benzo[d]oxazol-5-yl)methyl)piperidine-4-carboxylic acid] |
| ≤ 10 | Cc1c(Nc2nccc3cc(CN4CC[C@@H](O)C4)cnc23)cccc1-c1cccc(-c2nc3cc(CNC45CCC(C(=O)O)(CC4)C5)cc(C#N)c3o2)c1C [Example 183, (R)-4-((7-cyano-2-(3′-(3-((3-hydroxypyrrolidin-1-yl)methyl)-1,7-naphthyridin-8-ylamino)-2,2′-dimethylbiphenyl-3-yl)benzo [d]oxazol-5-yl)methylamino)bicyclo[2.2.1]heptane-1-carboxylic acid] |
| ≤ 10 | Cc1c(-c2nc3cc(CN4CC[C@@H](C(=O)O)C4)cc(C#N)c3o2)cccc1-c1cccc(-c2nc3c(s2)CN(C(=O)[C@@H]2CCCN2C)C3)c1C [Example 107, (R)-1-((7-cyano-2-(2,2′-dimethyl-3′-(5-((8)-1-methylpyrrolidine-2-carbonyl)-5,6-dihydro-4H-pyrrolo[3,4-d]thiazol-2-yl)biphenyl-3-yl)benzo[d]oxazol-5-yl)methyl)pyrrolidine-3-carboxylic acid] |
| ≤ 10 | Cc1c(Nc2nccc3cc(CN4CC[C@@](C)(O)C4)cnc23)cccc1-c1cccc(-c2nc3cc(CN4CC[C@@H](C(=O)O)C4)cc(C#N)c3o2)c1C [Example 137, (R)-1-((7-cyano-2-(3′-(3-(((R)-3-hydroxy-3-methylpyrrolidin-1-yl)methyl)-1,7-naphthyridin-8-ylamino)-2,2′-dimethylbiphenyl-3-yl)benzo[d]oxazol-5-yl)methyl)pyrrolidine-3-carboxylic acid] |
